Assays:
HepG2 = assay: Cytotoxicity against human HepG2 cells assessed as inhibition of cell growth by MTT assay; assay type: functional, cell-based
HCT-116 [1] = assay: Cytotoxicity against human HCT-116 cells assessed as inhibition of cell growth by MTT assay; assay type: functional, cell-based
SMMC-7721 = assay: Cytotoxicity against human SMMC-7721 cells assessed as inhibition of cell growth by MTT assay; assay type: functional, cell-based
NCI-H1299 = assay: Cytotoxicity against human NCI-H1299 cells assessed as inhibition of cell growth by MTT assay; assay type: functional, cell-based
A549 [2] = assay: Cytotoxicity against human A549 cells assessed as inhibition of cell growth by MTT assay; assay type: functional, cell-based
PC-3 = assay: Cytotoxicity against human PC-3 cells assessed as inhibition of cell growth by MTT assay; assay type: functional, cell-based
Histone deacetylase 1 = Histone deacetylase 1 (Homo sapiens, UniProt Q13547); assay: Inhibition of HDAC1 (unknown origin)
[3] = biological target: T1, Protein deacetylase HDAC6 (Homo sapiens, UniProt Q9UBN7); assay: Inhibition of HDAC6 (unknown origin)
T1 sequence (Q9UBN7 whole entry): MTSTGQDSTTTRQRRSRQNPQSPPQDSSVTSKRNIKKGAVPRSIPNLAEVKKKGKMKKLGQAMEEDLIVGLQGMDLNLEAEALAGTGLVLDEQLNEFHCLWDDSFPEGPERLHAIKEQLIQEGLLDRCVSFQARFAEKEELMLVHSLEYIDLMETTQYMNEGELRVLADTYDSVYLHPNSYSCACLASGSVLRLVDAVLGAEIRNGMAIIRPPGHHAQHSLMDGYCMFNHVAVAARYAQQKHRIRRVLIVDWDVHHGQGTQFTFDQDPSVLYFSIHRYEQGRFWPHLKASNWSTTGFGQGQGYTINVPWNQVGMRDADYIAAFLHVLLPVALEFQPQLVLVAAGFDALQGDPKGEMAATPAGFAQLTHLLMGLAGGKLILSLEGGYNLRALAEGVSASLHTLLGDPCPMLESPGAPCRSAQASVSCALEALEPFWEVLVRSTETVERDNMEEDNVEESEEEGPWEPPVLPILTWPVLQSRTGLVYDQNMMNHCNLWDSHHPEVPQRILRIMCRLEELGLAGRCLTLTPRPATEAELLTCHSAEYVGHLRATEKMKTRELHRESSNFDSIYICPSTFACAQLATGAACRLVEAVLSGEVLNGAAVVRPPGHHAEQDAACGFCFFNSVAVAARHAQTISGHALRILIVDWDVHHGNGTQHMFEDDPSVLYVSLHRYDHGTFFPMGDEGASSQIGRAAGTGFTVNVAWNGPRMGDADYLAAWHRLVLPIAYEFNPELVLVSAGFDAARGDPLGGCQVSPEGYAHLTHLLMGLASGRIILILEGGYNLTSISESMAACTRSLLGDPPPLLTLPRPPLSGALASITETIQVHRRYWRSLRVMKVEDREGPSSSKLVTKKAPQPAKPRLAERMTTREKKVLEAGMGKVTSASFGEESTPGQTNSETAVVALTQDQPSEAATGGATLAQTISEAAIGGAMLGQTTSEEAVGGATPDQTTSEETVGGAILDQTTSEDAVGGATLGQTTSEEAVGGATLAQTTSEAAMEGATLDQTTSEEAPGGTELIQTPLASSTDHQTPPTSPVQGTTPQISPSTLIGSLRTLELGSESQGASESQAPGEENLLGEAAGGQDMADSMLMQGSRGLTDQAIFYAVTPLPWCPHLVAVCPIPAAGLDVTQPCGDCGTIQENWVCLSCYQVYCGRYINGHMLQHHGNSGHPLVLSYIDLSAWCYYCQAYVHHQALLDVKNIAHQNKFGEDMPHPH

MDA-MB-231 [4] = assay: Cytotoxicity against human MDA-MB-231 cells assessed as inhibition of cell growth by MTT assay; assay type: functional, cell-based
[5] = Cytotoxicity against human RWPE-1 cells assessed as inhibition of cell growth by MTT assay; assay type: toxicity, cell-based
[6] = Cytotoxicity against African green monkey Vero cells assessed as inhibition of cell growth by MTT assay; assay type: toxicity, cell-based, Chlorocebus sabaeus
Ehrlich = assay: Antitumor activity against mouse EAC cells implanted in mouse assessed as survival rate at 125 mg/kg, ip administered for 10 days; assay type: functional; conditions: 240 h, time 10 day
MCF7 = assay: Cytotoxicity against human MCF7 cells assessed as inhibition of cell growth measured after 24 hrs by MTT assay; assay type: functional, cell-based; conditions: MCF7, 24 h
MDA-MB-231 [7] = assay: Cytotoxicity against human MDA-MB-231 cells assessed as inhibition of cell growth measured after 24 hrs by MTT assay; assay type: functional, cell-based; conditions: MDA-MB-231, 24 h
HCT-116 [8] = assay: Cytotoxicity against human HCT-116 cells assessed as inhibition of cell growth measured after 24 hrs by MTT assay; assay type: functional, cell-based; conditions: HCT-116, 24 h
Histone deacetylase 3 = Histone deacetylase 3 (Homo sapiens, UniProt O15379); assay: Inhibition of HDAC3 (unknown origin)
Histone deacetylase 2 = Histone deacetylase 2 (Homo sapiens, UniProt Q92769); assay: Inhibition of HDAC2 (unknown origin)
A549 [9] = assay: Cytotoxicity against human A549 cells assessed as inhibition of cell growth by SRB assay; assay type: functional
HCT-116 [10] = assay: Cytotoxicity against human HCT-116 cells assessed as inhibition of cell growth by SRB assay; assay type: functional, cell-based
MDA-MB-231 [11] = assay: Cytotoxicity against human MDA-MB-231 cells assessed as inhibition of cell growth by SRB assay; assay type: functional, cell-based
ASPC1 [12] = assay: Cytotoxicity against human ASPC1 cells assessed as inhibition of cell growth by SRB assay; assay type: functional, cell-based
HCT-116 [13] = assay: Antitumor activity against human HCT-116 cells xenografted in mouse assessed as tumor growth inhibition at 15 mg/kg, iv relative to control; assay type: functional; conditions: read-out: TGI
ASPC1 [14] = assay: Cytotoxicity against human ASPC1 cells assessed as inhibition of cell growth by MTT assay; assay type: functional, cell-based
HT-29 [15] = assay: Antitumor activity against human HT-29 cells xenografted in mouse assessed as tumor growth inhibition at 100 mg/kg, po relative to control; assay type: functional; conditions: read-out: TGI
HT-29 [16] = assay: Antitumor activity against human HT-29 cells xenografted in mouse assessed as tumor growth inhibition at 50 mg/kg, po relative to control; assay type: functional; conditions: read-out: TGI
HT-29 [17] = assay: Antitumor activity against human HT-29 cells xenografted in mouse assessed as tumor growth inhibition at 25 mg/kg, po relative to control; assay type: functional; conditions: read-out: TGI
Kasumi 1 = assay: Cytotoxicity against human Kasumi 1 cells assessed as inhibition of cell growth by MTT assay; assay type: functional, cell-based
NB-4 = assay: Cytotoxicity against human NB-4 cells assessed as inhibition of cell growth by MTT assay; assay type: functional, cell-based

Histone deacetylase 1, sequence (Q13547 whole entry): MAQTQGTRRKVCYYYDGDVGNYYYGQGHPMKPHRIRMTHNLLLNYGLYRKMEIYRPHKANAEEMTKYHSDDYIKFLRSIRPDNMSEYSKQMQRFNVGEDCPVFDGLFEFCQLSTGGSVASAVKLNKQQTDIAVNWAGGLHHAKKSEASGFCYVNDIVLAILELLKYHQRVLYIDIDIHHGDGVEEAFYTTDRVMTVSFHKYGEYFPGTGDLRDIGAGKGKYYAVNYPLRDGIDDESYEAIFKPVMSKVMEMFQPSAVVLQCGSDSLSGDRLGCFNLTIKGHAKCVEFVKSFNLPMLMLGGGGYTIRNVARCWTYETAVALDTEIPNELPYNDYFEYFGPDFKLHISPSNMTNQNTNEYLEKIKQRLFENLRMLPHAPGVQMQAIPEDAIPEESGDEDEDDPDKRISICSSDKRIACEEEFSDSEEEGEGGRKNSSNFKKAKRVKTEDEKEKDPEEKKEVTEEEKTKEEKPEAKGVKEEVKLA
Histone deacetylase 3, sequence (O15379 whole entry): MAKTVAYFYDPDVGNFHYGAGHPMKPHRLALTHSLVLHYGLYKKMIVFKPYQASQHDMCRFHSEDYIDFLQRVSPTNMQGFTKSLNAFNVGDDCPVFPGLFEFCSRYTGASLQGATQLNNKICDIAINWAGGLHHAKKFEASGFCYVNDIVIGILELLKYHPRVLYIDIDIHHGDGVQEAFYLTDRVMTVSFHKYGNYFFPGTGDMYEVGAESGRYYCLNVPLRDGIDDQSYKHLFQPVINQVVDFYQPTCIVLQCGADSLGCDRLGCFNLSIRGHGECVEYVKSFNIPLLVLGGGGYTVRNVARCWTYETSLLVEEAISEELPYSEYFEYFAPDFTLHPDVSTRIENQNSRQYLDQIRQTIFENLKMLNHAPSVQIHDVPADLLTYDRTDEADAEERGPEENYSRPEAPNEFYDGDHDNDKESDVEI
Histone deacetylase 2, sequence (Q92769 whole entry): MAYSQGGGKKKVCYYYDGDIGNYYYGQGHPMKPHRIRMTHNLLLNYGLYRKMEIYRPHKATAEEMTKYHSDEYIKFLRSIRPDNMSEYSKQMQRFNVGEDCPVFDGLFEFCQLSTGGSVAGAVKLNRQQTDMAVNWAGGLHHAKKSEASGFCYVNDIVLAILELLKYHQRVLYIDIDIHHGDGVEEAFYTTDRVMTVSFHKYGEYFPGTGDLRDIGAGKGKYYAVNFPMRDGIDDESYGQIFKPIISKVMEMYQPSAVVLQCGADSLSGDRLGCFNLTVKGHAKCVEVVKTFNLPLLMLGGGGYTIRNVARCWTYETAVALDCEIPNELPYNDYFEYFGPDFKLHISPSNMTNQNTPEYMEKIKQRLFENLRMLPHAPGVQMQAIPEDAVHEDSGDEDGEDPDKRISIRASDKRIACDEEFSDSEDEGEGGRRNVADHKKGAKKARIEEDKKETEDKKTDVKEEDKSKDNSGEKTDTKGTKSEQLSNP

Work on `COc1ccc(-c2nc(C(=O)N(CCN(C)C)Cc3ccc(C(=O)NO)cc3)cc3c2[nH]c2ccccc23)cc1` yielded an IC50 (HepG2) of 1600 nM, an IC50 (HCT-116 [1]) of 1600 nM and an IC50 (SMMC-7721) of 1600 nM. The IC50 (NCI-H1299) was 1600 nM.
For `N#Cc1cccc(-c2cn(CCCCCCn3cccc(/C=C/C(=O)NO)c3=O)nn2)c1`, the IC50 (A549 [2]) was 600 nM, the IC50 (PC-3) was 600 nM and the IC50 (HepG2) was 600 nM. The IC50 (Histone deacetylase 1) was 35 nM, the IC50 [3] was 49 nM and the IC50 (MDA-MB-231 [4]) was 600 nM. For the same molecule, the IC50 [5] was greater than 50000 nM and the IC50 [6] was greater than 50000 nM.
For `Nn1c(SCCC(=O)NO)nnc1-c1cccnc1`, the survival at 125 mg/kg (Ehrlich) was 205%, the IC50 (MCF7) was 10400 nM and the IC50 (MDA-MB-231 [7]) was 10400 nM. For the same molecule, the IC50 (HCT-116 [8]) was 10400 nM.
`Cc1[nH]c2ccccc2c1CCNS(=O)(=O)c1ccc(/C=C/C(=O)NO)cc1` showed an IC50 (Histone deacetylase 3) of 5.13 nM, an IC50 (Histone deacetylase 1) of 5.13 nM and an IC50 (Histone deacetylase 2) of 5.13 nM. The IC50 [3] was 5.13 nM, the GI50 (A549 [9]) was 29 nM and the IC50 (HCT-116 [10]) was 29 nM. The IC50 (MDA-MB-231 [11]) was 29 nM, the IC50 (ASPC1 [12]) was 29 nM and the inhibition in vivo at 15 mg/kg (HCT-116 [13]) was 50.7%. For the same molecule, the IC50 (ASPC1 [14]) was 490 nM.
`C[C@H](NC(=O)c1nc(-c2ncc(-c3ccccc3)s2)sc1C1CC1)c1ccc(C(=O)NO)cc1` gave an inhibition in vivo at 100 mg/kg (HT-29 [15]) of 62.5%, an inhibition in vivo at 50 mg/kg (HT-29 [16]) of 40.7% and an inhibition in vivo at 25 mg/kg (HT-29 [17]) of 39.4%.
Work on `Cn1c(CCCCCCC(=O)NO)nc2cc(N(CCCl)CCCl)ccc21` [TINOSTAMUSTINE] yielded an IC50 (Kasumi 1) of 820 nM and an IC50 (NB-4) of 900 nM.
